Test results reported in US20260327240A1, “1,4-CINEOLE DERIVATIVE AND INTERMEDIATE THEREOF, HERBICIDE CONTAINING SAID DERIVATIVE AS ACTIVE INGREDIENT, METHOD FOR USING HERBICIDE, AND METHOD FOR PREPARING AGROCHEMICAL COMPOSITION” (HOKKO CHEMICAL INDUSTRY CO., LTD., priority 2023, published 2026).

Experiments:
Assay type in all cases: in vivo
Scirpus juncoides [1] = test: Test Example 2: herbicidal effect test by application during growth period of paddy rice; conditions: Schoenoplectiella juncoides, 7 days after sowing, 120 g per 10 ares, 14 days after application, read-out: weed inhibition rate
Summary of the method: (§1)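 Flooded paddy-soil pots (about 3 cm water) sown with 30 seeds per weed species and kept in a greenhouse. Emulsifiable concentrate applied by dropper seven days after sowing at 120 g active ingredient per 10 ares, in duplicate. Herbicidal effect scored 14 days after application.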

[2] = test system: Echinochloa crus-galli var. formosensis; test: as above; conditions: Echinochloa crus-galli, 7 days after sowing, 120 g per 10 ares, 14 days after application, read-out: weed inhibition rate
Summary of the method: as §1

Monochoria vaginalis = test: Test Example 1: herbicidal effect test by soil application in paddy rice; conditions: Pontederia vaginalis, 336 h, 120 g per 10 ares, 14 days after application, read-out: weed inhibition rate
Summary of the method: (§2)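 Paddy soil in flooded Wagner pots (~3 cm water), weed seeds sown at 0–1 cm depth, greenhouse; emulsifiable concentrate diluted in water and applied by dropper immediately after sowing at 120 g active ingredient per 10 ares. Duplicate pots; weed inhibition rate (%) scored 14 days after application.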

Scirpus juncoides [3] = test: as above; conditions: Schoenoplectiella juncoides, 336 h, 120 g per 10 ares, 14 days after application, read-out: weed inhibition rate
Summary of the method: as §2

[4] = test system: Echinochloa crus-galli var. formosensis; test: as above; conditions: Echinochloa crus-galli, 336 h, 120 g per 10 ares, 14 days after application, read-out: weed inhibition rate
Summary of the method: as §2

Digitaria ciliaris [5] = test: Test Example 3: herbicidal effect test by soil application in upland field; conditions: Digitaria ciliaris, 1 day after sowing, 120 g per 10 ares, 14 days after application, read-out: weed inhibition rate
Summary of the method: (§3)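 Twenty seeds per weed species were mixed into the top 1 cm of alluvial loam in pots. One day after sowing, an emulsifiable concentrate diluted in water was sprayed on the soil surface at 120 g active ingredient per 10 ares.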

Amaranthus viridis = test: as above; conditions: Amaranthus viridis, 1 day after sowing, 120 g per 10 ares, 14 days after application, read-out: weed inhibition rate
Summary of the method: as §3

Echinochloa crus-galli [6] = test: as above; conditions: Echinochloa crus-galli, 1 day after sowing, 120 g per 10 ares, 14 days after application, read-out: weed inhibition rate
Summary of the method: as §3

[7] = test system: Echinochloa crus-galli var. formosensis; test: Test Example 5: herbicidal effect test by soil application in paddy rice; conditions: Echinochloa crus-galli, 336 h, 7.5 g per 10 ares, 14 days after application, read-out: weed inhibition rate
Description: Herbicidal Effect Test by Soil Application in Paddy Rice
Wagner pots with an area of […] were filled with paddy soil, followed by addition of water and incorporation of chemical fertilizer (N:P:K=16:16:16), after which puddling was performed. After that, seeds of Echinochloa crus-galli var. formosensis, broad-leaved weeds (Lindemia pyxidaria, and Monochoria vaginalis), and Scirpus juncoides were sown at a depth of 0 cm to 1 cm, 30 seeds each. Immediately after sowing, the pots were flooded and a water depth of approximately 3 cm was maintained. Subsequent management was conducted in a glass greenhouse. Immediately thereafter, an emulsifiable concentrate prepared according to Formulation Example 5 using the compound shown below was diluted with water, and a specified amount of the diluted solution was applied by dropper. The amount of the active ingredient to be applied was equivalent to 7.5 g per 10 ares.
The present test was conducted in duplicate for each chemical concentration group, and the herbicidal effect was evaluated 14 days after chemical application using the same criteria as in Test Example 1.

Digitaria ciliaris [8] = test: Test Example 7: herbicidal effect test by soil application in upland field; conditions: Digitaria ciliaris, 1 day after sowing, 7.5 g per 10 ares, 14 days after application, read-out: weed inhibition rate
Description: (§4) Herbicidal Effect Test by Soil Application in Upland Field
(§5) Pots with an area of 36 cm^2 were filled with upland soil (alluvial loam), twenty seeds each of weeds of Digitaria ciliaris, Echinochloa crus-galli, Chenopodium album, and Amaranthus viridis were uniformly mixed with the top 1 cm layer of soil and the surface was lightly pressed down. One day after sowing, an emulsifiable concentrate prepared according to Formulation Example 5 using the compound shown below was diluted with water, and the diluted solution was sprayed onto the soil surface at a rate of 100 liters per 10 ares. The amount of the active ingredient to be applied was equivalent to 7.5 g per 10 ares. Fourteen days after chemical application, the herbicidal effect was evaluated according to the same criteria as in Test Example 1.

Echinochloa crus-galli [9] = test: as above; conditions: Echinochloa crus-galli, 1 day after sowing, 7.5 g per 10 ares, 14 days after application, read-out: weed inhibition rate
Description: as §4, §5

CCOC(C)O[C@H]1C[C@]2(C)O[C@@]1(C(C)C)C[C@H]2OCc1ccccc1F (stereo partly drawn) [1-213, (1R,2S,4S,5R)-2-(1-ethoxyethoxy)-5-((2-fluorobenzyl)oxy)-1-isopropyl-4-methyl-7-oxabicyclo[2.2.1]heptane]
≥ 80%: inhibition at 1200 g/ha (Scirpus juncoides [1]) | inhibition at 1200 g/ha [2] | inhibition at 1200 g/ha (Monochoria vaginalis) | inhibition at 1200 g/ha (Scirpus juncoides [3]) | inhibition at 1200 g/ha [4] | inhibition at 1200 g/ha (Digitaria ciliaris [5]) | inhibition at 1200 g/ha (Amaranthus viridis) | inhibition at 1200 g/ha (Echinochloa crus-galli [6]) | inhibition at 75 g/ha [7] | inhibition at 75 g/ha (Digitaria ciliaris [8]) | inhibition at 75 g/ha (Echinochloa crus-galli [9])
